Results published in patent publication US9476099B2 (TRUSTEES OF DARTMOUTH COLLEGE, priority 2012, dated 2016).
“And” between values parts separate entries of the source, which are not always exact repeats. Equal values may be shown once.

Test system: NT2/D1-R1 control and DNMT3B knockdown cells
Assay: Genome-wide expression analysis with PAM clusters, control and DNMT3B knockdown cells (Tables 8-14)
Settings: sh-3B + aza
[1] = NT2/D1-R1 DNMT3B knockdown, decitabine 10 nM 3 days

## Nc1ncn([C@H]2C[C@H](O)[C@@H](CO)O2)c(=O)n1 [aza]
10 nM decitabine, 3 days
  ADAMTSL2 NM_014694 expression Mean: 202.775
  ADM NM_001124 expression Mean: 446.451
  AFMID NM_0010109 expression Mean: 172.091
  AHNAK NM_001620 expression Mean: 254.833
  ANAPC13 NM_015391 expression Mean: 377.446
  ANXA1 NM_000700 expression Mean: 394.045
  ANXA2 NM_0010028 expression Mean: 2283.3
  AW972815 expression Mean: 584.452
  BAG3 NM_004281 expression Mean: 816.89
  BCL11A NM_022893 expression Mean: 345.798
  BIRC5 NM_001168 expression Mean: 423.791
  BTG2 NM_006763 expression Mean: 242.194
  C9orf6 NM_017832 expression Mean: 227.753
  C10orf2 NM_021830 expression Mean: 399.327
  C10orf58 NM_032333 expression Mean: 578.039
  C16orf93 NM_0010149 expression Mean: 214.657
  CA2 NM_000067 expression Mean: 486.868
  CATSPER2 NM_172097 expression Mean: 970.22
  CAV1 NM_001753 expression Mean: 402.328
  CCND1 NM_053056 expression Mean: 1996.23
  CDKN1A NM_000389 expression Mean: 619.606
  CDX1 NM_001804 expression Mean: 237.199
  CEACAM1 NM_0010249 expression Mean: 156.04
  CIRH1A NM_032830 expression Mean: 1424.13
  CLCF1 NM_013246 expression Mean: 200.181
  CLDN10 NM_006984 expression Mean: 222.057
  CNN3 NM_001839 expression Mean: 732.909
  COL7A1 NM_000094 expression Mean: 746.239
  COL17A1 NM_000494 expression Mean: 230.283
  CRABP2 NM_001878 expression Mean: 1011.8
  CRIPT NM_014171 expression Mean: 325.647
  CTNNB1 NM_0010982 expression Mean: 258.366
  CUEDC1 NM_017949 expression Mean: 215.515
  CXCL14 NM_004887 expression Mean: 194.723
  CXXC1 NM_014593 expression Mean: 1121.15
  CXorf40A NM_178124 expression Mean: 203.34
  CYR61 NM_001554 expression Mean: 338.671
  DDX51 NM_175066 expression Mean: 1008.46
  DIMT1L NM_014473 expression Mean: 616.311
  DUSP5 NM_004419 expression Mean: 1159.02
  EBI3 NM_005755 expression Mean: 333.316
  EIF2C2 NM_012154 expression Mean: 367.506
  ELF3 NM_004433 expression Mean: 204.8
  ELF4 NM_001421 expression Mean: 365.338
  EMILIN2 NM_032048 expression Mean: 230.192
  EOMES NM_005442 expression Mean: 289.321
  FAM53C NM_016605 expression Mean: 1227.05
  FAM123B NM_152424 expression Mean: 759.762
  FLJ40504 NM_173624 expression Mean: 1376.6
  FOXO3 NM_201559 expression Mean: 274.369
  GAD1 NM_000817 expression Mean: 204.457
  GAD1 NM_013445 expression Mean: 246.924
  GALNAC4S-6 NM_015892 expression Mean: 540.521
  GEMIN4 NM_015721 expression Mean: 784.75
  GLIPR2 NM_022343 expression Mean: 227.407
  GNL3L NM_019067 expression Mean: 289.661
  GNL3 NM_206826 expression Mean: 1810.36
  GPATCH4 NM_182679 expression Mean: 927.016
  GPER NM_0010399 expression Mean: 176.693
  GPR56 NM_201524 expression Mean: 189.936
  GPR56 NM_201525 expression Mean: 205.229
  GPR177 NM_0010022 expression Mean: 158.032 and 231.861
  GPR177 NM_024911 expression Mean: 239.092
  GTF3C6 NM_138408 expression Mean: 454.993
  H2AFY NM_004893 expression Mean: 843.815
  HARS NM_002109 expression Mean: 1283.03
  HCLS1 NM_005335 expression Mean: 494.474
  HES2 NM_019089 expression Mean: 164.558
  HSPA1A NM_005346 expression Mean: 348.731
  HSPA8 NM_006597 expression Mean: 3799.27
  HSPA8 NM_153201 expression Mean: 4636.48
  HSPH1 NM_006644 expression Mean: 389.459
  ID3 NM_002167 expression Mean: 1623.89
  IER3 NM_003897 expression Mean: 406.859
  IL2RB NM_000878 expression Mean: 175.269
  ITPRIP NM_033397 expression Mean: 226.046
  JTV1 NM_006303 expression Mean: 1336.75
  KAT2A NM_021078 expression Mean: 704.033
  KIAA0101 NM_014736 expression Mean: 230.187
  KRT8 NM_002273 expression Mean: 2758.76
  LEFTY2 NM_003240 expression Mean: 2484.87
  LOC644422 XR_019449 expression Mean: 223.185
  LOC647954 XR_018676 expression Mean: 1052.7
  LOC728715 XM_0011282 expression Mean: 877.255
  M6PRBP1 NM_005817 expression Mean: 907.761
  MBNL3 NM_133486 expression Mean: 272.09
  MCM4 NM_005914 expression Mean: 2040.37
  MEPCE NM_019606 expression Mean: 354.1
  METTL1 NM_005371 expression Mean: 266.779
  MORF4L2 NM_012286 expression Mean: 2564.56
  MRTO4 NM_016183 expression Mean: 654.553
  MT1E NM_175617 expression Mean: 1985.42
  MTA2 NM_004739 expression Mean: 325.004
  MYOF NM_013451 expression Mean: 177.015
  MYOF NM_133337 expression Mean: 293.772
  NACC2 NM_144653 expression Mean: 245.995
  NAT5 NM_181528 expression Mean: 1059.57
  NBPF10 NM_0010376 expression Mean: 370.658
  NBPF10 NM_0010397 expression Mean: 345.645
  NEFH NM_021076 expression Mean: 407.674
  NFE2 NM_006163 expression Mean: 245.362
  NM_002467 expression Mean: 595.692
  NM_0010397 expression Mean: 405.052
  NM_138781 expression Mean: 305.526
  NODAL NM_018055 expression Mean: 1549.19
  NOP2 NM_0010337 expression Mean: 5354.42
  NOP56 NM_006392 expression Mean: 2368.5
  NP NM_000270 expression Mean: 340.821
  NR_002773 expression Mean: 394.199
  NR_003287 expression Mean: 182.319
  NTF3 NM_002527 expression Mean: 184.819
  NTS NM_006183 expression Mean: 457.501
  NUAK2 NM_030952 expression Mean: 225.181 and 195.684
  OAT NM_000274 expression Mean: 2711.86
  ODC1 NM_002539 expression Mean: 2404.47
  PAK1IP1 NM_017906 expression Mean: 603.531
  PEA15 NM_003768 expression Mean: 969.289
  PEG3 NM_006210 expression Mean: 256.384
  PITX1 NM_002653 expression Mean: 267.398
  PLAU NM_002658 expression Mean: 325.966
  PLEKHF1 NM_024310 expression Mean: 367.904
  POLR1C NM_203290 expression Mean: 414.276 and 557.268
  PPA2 NM_006903 expression Mean: 606.161
  PPAN NM_002566 expression Mean: 287.832
  RBM22 NM_018047 expression Mean: 700.828
  RNMTL1 NM_018146 expression Mean: 432.796
  RPL6 NM_0010246 expression Mean: 1608.44
  RRM2 NM_001034 expression Mean: 799.058
  RSL1D1 NM_015659 expression Mean: 1458.69
  RUNX3 NM_004350 expression Mean: 191.132
  SERPINE1 NM_000602 expression Mean: 246.121
  SERTAD1 NM_013376 expression Mean: 291.604
  SFXN4 NM_213649 expression Mean: 481.671
  SIDT2 NM_0010404 expression Mean: 326.437
  SLC20A1 NM_005415 expression Mean: 1225.68
  SNAPC4 NM_003086 expression Mean: 599.752
  SOCS2 NM_003877 expression Mean: 182.936 and 244.438
  SOX15 NM_006942 expression Mean: 1693.21
  SPANXD NM_145665 expression Mean: 121.39
  SPRYD5 NM_032681 expression Mean: 293.721
  SQSTM1 NM_003900 expression Mean: 885.073
  SRRT NM_015908 expression Mean: 2745.27
  SUSD2 NM_019601 expression Mean: 1694.29
  TAGLN NM_003186 expression Mean: 489.068
  TNFRSF12A NM_016639 expression Mean: 296.715
  TNFRSF13B NM_012452 expression Mean: 214.796
  TNPO1 NM_153188 expression Mean: 240.816
  TPRG1L NM_182752 expression Mean: 762.223
  TRIM8 NM_030912 expression Mean: 529.909
  TTC4 NM_004623 expression Mean: 851.239
  UTP14A NM_006649 expression Mean: 736.541
  WBSCR22 NM_017528 expression Mean: 958.822
  XM_0011261 expression Mean: 824.879
  XM_0011281 expression Mean: 1290.15
  XR_015970 expression Mean: 527.915
  XR_016703 expression Mean: 4025.84
  XR_017241 expression Mean: 5144.11
  XR_017543 expression Mean: 410.447
  ZDHHC6 NM_022494 expression Mean: 344.248
  ZHX2 NM_014943 expression Mean: 196.281
[1]
  A4GALT (NM_017436) gene expression, Mean: 279.705
  ABR (NM_001092) gene expression, Mean: 376.941
  ACACA (NM_198836) gene expression, Mean: 630.777
